Activity calls are given as the source filed them. No rule for the calls is given here.
Experiment: Cytotoxicity activity against human HepG2 cells assessed by CellTiter-Glo luminescent cell viability assay.
Type: toxicity, cell-based
Parameters: assay stage confirmatory assay, source tissue liver
Conditions: HepG2 cells, read-out: IC50 relative

Structure (SMILES)	CC50
Nc1ncnc2c1c(-c1cnc3[nH]ccc3c1)nn2C1CCCC1	1.6 µM (active)
CS(=O)(=O)CCNCc1ccc(-c2ccc3ncnc(Nc4ccc(OCc5cccc(F)c5)c(Cl)c4)c3c2)o1	6.1 µM (active)
Cc1ccc(Nc2ncc3c(n2)N(C)C(=O)N(c2cc(NC(=O)c4cccc(C(F)(F)F)c4)ccc2C)C3)cn1	0.1 µM (active)
CC(=O)Nc1nc(C)c(-c2ccc(Cl)c(S(=O)(=O)NCCO)c2)s1	4 µM (active)
C#CCN(Cc1cc2c(=O)[nH]c(C)nc2cc1Br)c1ccc(C(=O)NCc2cccnc2)cc1	0.1 µM (active)
CC(C)n1nc(-c2cc3cc(O)ccc3[nH]2)c2c(N)ncnc21	2.6 µM (active)
O=C1Nc2ccccc2C2(CCN(CCc3ccc(C(F)(F)F)cc3)CC2)O1	10.7 µM (active)
CN(C)CCCNC(=O)c1ccc(-c2cc(O)c3ncccc3c2)cc1	8 µM (active)
CN(C)c1ccc(C(=O)NCCCCCCC(=O)NO)cc1	0.9 µM (active)
COc1ccc2[nH]c(C(=O)c3ccccc3)cc2c1	0.2 µM (inactive)
O=S(=O)(c1cccc2c(I)cccc12)N1CCCNCC1	9.7 µM (active)
CCN1CCN(C(c2ccc(C(F)(F)F)cc2)c2ccc3cccnc3c2O)CC1 (stereo unspecified)	4.1 µM (active)
O=C(Nc1cccnc1)N1CCC(Cc2cccc(Oc3ccc(C(F)(F)F)cn3)c2)CC1	12.7 µM (active)
CC(C)c1cnn2c(NCc3ccccc3)cc(NCCCCCCN)nc12	9.3 µM (active)
COc1cc2c(NC3CCN(C4CCCCC4)CC3)nc(N3CCCN(C(C)C)CC3)nc2cc1OCCCN1CCCCC1	6.6 µM (active)
COc1cc2c(NC3CCN(CC4CCCCC4)CC3)nc(N3CCCN(C(C)C)CC3)nc2cc1OCCCN1CCCCC1	1.1 µM (active)
O=C(c1ccc(Nc2nccc(-c3cc4ccccc4s3)n2)cc1)N1CCC(N2CCCC2)CC1	1.3 µM (active)
CN1CCCN(C(=O)c2cccc(-c3ccc(/C=C4/C(=O)Nc5ccc(Cl)cc54)o3)c2)CC1	0.6 µM (active)
COc1cc2c(cc1Cc1cccc(Cl)c1F)c(=O)c(C(=O)O)cn2[C@H](CO)C(C)C	10.2 µM (active)
COc1cc(C)c(Sc2cnc(NC(=O)c3ccc(CNC(C)C(C)(C)C)cc3)s2)cc1C(=O)N1CCN(C(C)=O)CC1 (stereo unspecified)	7.5 µM (active)
COc1cc(OC2CCN(C)CC2)ccc1Nc1ncc2c(n1)n(C1CCCC1)c(=O)n2C	5 µM (active)

Structure (SMILES)	CC50
COc1cc(Nc2cnc(C#N)c(O[C@H](C)CN(C)C)n2)ncc1-c1cnn(C)c1	10.4 µM (active)
NC(=O)c1cnc(NCCc2ccc(O)c(Cl)c2)nc1NCc1ccccc1	4.2 µM (active)
Cc1cc(C)cc(C(=O)NOCCCCCC(=O)NO)c1	0.5 µM (active)
c1cc(-c2cnn3cc(-c4ccc(N5CCNCC5)cc4)cnc23)c2cccnc2c1	0.9 µM (active)
Fc1ccc(CNc2ncnc3ccc(F)cc23)cc1	4.3 µM (active)
COc1cc(C(=O)NC2CCN(C)CC2)ccc1Nc1ncc2c(n1)N(C1CCCC1)CC(F)(F)C(=O)N2C	2.9 µM (active)
O=C(NCc1ccc(S(=O)(=O)c2cc(F)cc(F)c2)cc1)c1ccc2nccn2c1	< 0.1 µM (active)
Cc1cccc(CC(=O)N2CCc3c2ccc(-c2cn(C)c4ncnc(N)c24)c3F)n1	6.7 µM (active)
COc1ccc2c(c1)c(C1=C(c3c[nH]c4ccccc34)C(=O)NC1=O)cn2CCCN(C)C	4.7 µM (active)
CCOC(=O)[C@H](Cc1ccc([N+](=O)[O-])cc1)NC(=O)c1ccccc1	15.4 µM (active)
COc1cc2ncnc(Nc3cccc(Br)c3)c2cc1OC	6.7 µM (active)
CC(C)N(CCCNC(=O)Nc1ccc(C(C)(C)C)cc1)C[C@H]1O[C@@H](n2cc(Br)c3c(N)ncnc32)[C@H](O)[C@@H]1O	10.1 µM (active)
CCCCNc1ncc(C(=O)NCc2ccc(-n3ccnc3)cc2)c(N[C@H]2CC[C@H](O)CC2)n1	2.8 µM (active)
CN[C@@H](C)C(=O)N[C@H](C(=O)N1CCC[C@H]1C(=O)N[C@H]1c2ccccc2C[C@H]1OCC#CC#CCO[C@@H]1Cc2ccccc2[C@@H]1NC(=O)[C@@H]1CCCN1C(=O)[C@@H](NC(=O)[C@H](C)NC)C1CCCCC1)C1CCCCC1	3.7 µM (active)
CN(CC(=O)N(Cc1ccc(C2CCCCC2)cc1)c1ccc(C(=O)O)cc1)S(=O)(=O)c1c(F)c(F)c(F)c(F)c1F	3.4 µM (active)
N#Cc1c(Oc2ccc(F)c(NC(=O)Cc3cccc(C(F)(F)F)c3)c2)ccc2nc(NC(=O)C3CC3)sc12	0.4 µM (active)
COc1ccccc1-c1cc(Nc2cccc(CS(N)(=O)=O)c2)ncn1	2.5 µM (active)
c1ccc(Cn2c(-c3ccc(OC[C@H](C4CCNCC4)n4c(-c5ccccc5)nc5ccccc54)cc3)nc3ccccc32)cc1	1.6 µM (active)
Cc1c2ccncc2c(C)c2c1[nH]c1ccccc12	1.4 µM (active)
COc1cc2c3c(n(CCCNCCO)c(=O)c2cc1OC)-c1cc2c(cc1C3=O)OCO2	1.1 µM (active)
CCCCNc1ncc2c(-c3ccc(CN4CCN(C)CC4)cc3)cn([C@H]3CC[C@H](O)CC3)c2n1	1.3 µM (active)

Structure (SMILES)	CC50
COc1cc(-c2cc(-c3ccc(N4CCNCC4)cc3)cnc2C)cc(OC)c1OC	9.1 µM (active)
CNc1nc(NCc2ccc(NS(C)(=O)=O)cc2Cl)cc(-c2ccccn2)n1	14.3 µM (inactive)
Cc1ccc2c(NS(=O)(=O)c3ccccc3Cl)cccc2c1Oc1ncccc1-c1ccnc(N[C@H]2CCCNC2)n1	5.2 µM (active)
O=C(Nc1cccc(C(F)(F)F)c1)Nc1cc(S(=O)(=O)NC2CC2)ccc1-c1ccsc1	10.1 µM (active)
O=C1/C(=C/c2ccc([N+](=O)[O-])cc2)CS(=O)(=O)C/C1=C\c1ccc([N+](=O)[O-])cc1	0.1 µM (active)
CCN1CCN(Cc2ccc(C(=O)Nc3ccc(C)c(Oc4ccc5c(c4)CC(=O)N5)c3)cc2C(F)(F)F)CC1	6.2 µM (active)
COc1cc2c(cc1OC)CN(CCc1ccc(NC(=O)c3cc(OC)c(OC)cc3NC(=O)c3cnc4ccccc4c3)cc1)CC2	27.3 µM (inactive)
CN(C)C/C=C/C(=O)Nc1ccc(C(=O)Nc2cccc(Nc3ncc(Cl)c(-c4c[nH]c5ccccc45)n3)c2)cc1	< 0.1 µM (active)
CCS(=O)(=O)c1ccc(CC(=O)Nc2cc(Cl)c(-c3ccccc3OC(F)(F)F)c(Cl)c2)cc1	12.7 µM (inactive)
C[C@@H]1COCCN1c1cc(=O)n2c(n1)N(Cc1cncc(Cl)c1)[C@H](C(F)(F)F)CC2	14.5 µM (inactive)
O=C(NO)c1cnc(NC2(c3ccccc3)CC2)nc1	7 µM (active)
Cc1cc(O)c(-c2ccc([C@@H](C)CN)cc2)c2c1[nH]c(=O)c1sccc12	0.1 µM (active)
CCNC(=O)C#Cc1ccc2c(c1)NC(=O)/C2=C(\Nc1ccc(CN(C)C)cc1)c1ccccc1	< 0.1 µM (active)
CNc1ncc2cc(-c3ccc(-c4cccc(C)n4)cc3Cl)c(=O)n(C[C@H]3OC[C@H](N)CO3)c2n1	4.5 µM (active)
COc1ccccc1C(=O)Nc1cc2c(cc1N1CCNC[C@H]1C)n(C)c(=O)n2C	16.9 µM (inactive)
CCOc1cc(N2CCC(O)CC2)ccc1Nc1ncc2c(n1)N(C1CCCC1)CCC(=O)N2C	4.3 µM (active)
Cc1cc(N2CCOCC2)cc2[nH]c(-c3c(NC[C@@H](O)c4cccc(Cl)c4)cc[nH]c3=O)nc12	2.3 µM (active)
C=CC(=O)Nc1ccc(CN(C(=O)Nc2c(Cl)c(OC)cc(OC)c2Cl)c2cc(Nc3ccc(N4CCN(C)CC4)cc3)ncn2)cc1	4.7 µM (active)
CCOc1cc(/C=C2/C(=O)N(c3ccccc3)N=C2C)cc(Cl)c1OCC(=O)OC	12.3 µM (active)
CC(C)(C)C[C@H]1N[C@@H](C(=O)N[C@H]2CC[C@H](O)CC2)[C@H](c2cccc(Cl)c2F)[C@@]12C(=O)Nc1cc(Cl)ccc12	4.9 µM (active)

Structure (SMILES)	CC50
CC(C)(C)N1C(=O)C(Nc2ccc(N3CCCCC3)cc2)=C(c2ccccc2)S1(=O)=O	4.9 µM (active)
N#Cc1ccc(COC[C@H]2O[C@@H](n3c(NCc4ccc(Cl)c(Cl)c4)nc4c(N)ncnc43)[C@H](O)[C@@H]2O)cc1	3 µM (active)
C=CC(=O)Nc1ccc2ncnc(Nc3ccc(OCc4cccc(F)c4)c(Cl)c3)c2c1	7.7 µM (active)
C=CCNC1=C2C[C@@H](C)C[C@H](OC)[C@H](O)[C@@H](C)/C=C(/C)[C@H](OC(N)=O)[C@@H](OC)/C=C\C=C(\C)C(=O)NC(=CC1=O)C2=O	< 0.1 µM (active)
CC(C)(C)OC(=O)Nc1ccc(-c2cc(C(=O)NCCCCCCC(=O)NO)no2)cc1	0.7 µM (active)
CS(=O)(=O)c1cccc(CNc2nc(Nc3ccc4c(c3)CCC(=O)N4)ncc2C(F)(F)F)c1	7.8 µM (active)
CC(C)=CCC[C@]1(C)C=Cc2c(O)c3c(c(CC=C(C)C)c2O1)O[C@]12C(=C[C@@H]4C[C@H]1C(C)(C)O[C@@]2(C/C=C(/C)C(=O)O)C4=O)C3=O	0.7 µM (active)
COc1cccc(OCCCN)c1-c1cc(Nc2cnc(C#N)cn2)n[nH]1	0.3 µM (active)
O=C(NCCCN1CCC2(CC1)OCc1ccccc12)[C@H]1CCCN1Cc1ccccc1	10.7 µM (active)
c1ccc2c(-c3cnn4cc(-c5ccc(N6CCNCC6)cc5)cnc34)ccnc2c1	0.5 µM (active)
Cc1ccc(C(=O)N(CCCN)C(c2oc3cc(Cl)ccc3c(=O)c2Cc2ccccc2)C(C)C)cc1 (stereo unspecified)	1.4 µM (active)
C[C@H]1CCC/C=C\[C@@H]2C[C@H](O)C[C@H]2[C@H](O)/C=C\C(=O)O1	< 0.1 µM (active)
COc1cc(C(=O)NC2CCN(C)CC2)c(F)cc1Nc1ncc2c(n1)N(C1CCCC1)CC(F)(F)C(=O)N2C	4.1 µM (active)
C=CC(=O)Nc1cccc(Oc2nc(Nc3ccc(N4CCN(C)CC4)c(F)c3)nc3[nH]ccc23)c1	1.9 µM (active)
CNc1cc2c(Nc3cccc(Br)c3)ncnc2cn1	20.5 µM (inactive)
COc1cc2nc(N3CCCN(C)CC3)nc(NC3CCN(Cc4ccccc4)CC3)c2cc1OC	0.9 µM (active)
NCC1CCN(c2nccc(-c3ccc4ccccc4c3)n2)CC1	4.4 µM (active)
COc1ccc(CNc2nc(N(CCO)CCO)nc3c2ncn3C(C)C)cc1	0.8 µM (active)
